# Measurements: ChEMBL document CHEMBL5360666, “Inhibition Profiles of Some Novel Sulfonamide-Incorporated α-Aminophosphonates on Human Carbonic Anhydrases” (ACS Med Chem Lett, 2023)
# Target: Carbonic anhydrase 12 (Homo sapiens, UniProt O43570)
# Experiment: Inhibition of human carbonic anhydrase 12 assessed as inhibition constant incubated for 1 hr prior to testing by phenol red based stopped-flow CO2 hydration assay
# Sequence of Carbonic anhydrase 12 (O43570 whole entry): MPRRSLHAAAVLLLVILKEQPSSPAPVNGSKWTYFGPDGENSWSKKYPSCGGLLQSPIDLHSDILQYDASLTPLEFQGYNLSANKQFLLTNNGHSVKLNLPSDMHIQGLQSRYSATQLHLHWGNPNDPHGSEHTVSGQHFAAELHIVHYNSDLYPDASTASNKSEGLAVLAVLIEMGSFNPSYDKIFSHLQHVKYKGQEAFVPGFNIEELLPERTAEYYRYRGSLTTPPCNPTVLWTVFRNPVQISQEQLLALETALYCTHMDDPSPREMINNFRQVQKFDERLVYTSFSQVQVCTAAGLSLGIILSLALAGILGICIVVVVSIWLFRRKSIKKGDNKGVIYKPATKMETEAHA
row,Ki,Compound
1,11.2 nM,COc1ccc(CNc2ccc(S(N)(=O)=O)cc2)cc1

# Target: Carbonic anhydrase 1 (Homo sapiens, UniProt P00915)
# Experiment: Inhibition of human carbonic anhydrase 1 assessed as inhibition constant incubated for 1 hr prior to testing by phenol red based stopped-flow CO2 hydration assay
# Sequence of Carbonic anhydrase 1 (P00915 whole entry): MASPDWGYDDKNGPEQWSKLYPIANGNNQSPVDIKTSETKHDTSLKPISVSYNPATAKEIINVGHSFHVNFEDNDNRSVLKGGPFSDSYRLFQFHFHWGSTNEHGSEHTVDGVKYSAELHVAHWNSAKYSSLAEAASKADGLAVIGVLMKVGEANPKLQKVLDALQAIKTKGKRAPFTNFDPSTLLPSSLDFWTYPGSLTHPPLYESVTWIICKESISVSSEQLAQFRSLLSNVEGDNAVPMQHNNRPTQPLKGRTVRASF
row,Ki,Compound
1,> 50000 nM,COc1ccc(CNc2ccc(S(N)(=O)=O)cc2)cc1

# Target: Carbonic anhydrase 9 (Homo sapiens, UniProt Q16790)
# Experiment: Inhibition of human carbonic anhydrase 9 assessed as inhibition constant incubated for 1 hr prior to testing by phenol red based stopped-flow CO2 hydration assay
row,Compound,Ki
1,COc1ccc(CNc2ccc(S(N)(=O)=O)cc2)cc1,883 nM
2,CCOP(=O)(OCC)C(Nc1ccc(S(N)(=O)=O)cc1)c1cccc(F)c1 (stereo not drawn),39.1 nM
3,CCOP(=O)(OCC)C(Nc1ccc(S(N)(=O)=O)cc1)c1ccc(SC)cc1 (stereo not drawn),80.2 nM
4,CCOP(=O)(OCC)C(Nc1ccc(S(N)(=O)=O)cc1)c1ccc(OC)c(OC)c1 (stereo not drawn),118 nM
5,CCOP(=O)(OCC)C(Nc1ccc(S(N)(=O)=O)cc1)c1c(Br)cccc1OC (stereo not drawn),346 nM
6,CCOP(=O)(OCC)C(Nc1ccc(S(N)(=O)=O)cc1)c1cc(OC)c(OC)cc1OC (stereo not drawn),249 nM
7,CCOP(=O)(OCC)C(Nc1ccc(S(N)(=O)=O)cc1)c1cc(OC)ccc1OC (stereo not drawn),470 nM
8,CCOP(=O)(OCC)C(Nc1ccc(S(N)(=O)=O)cc1)c1ccc(-c2ccccc2)cc1 (stereo not drawn),225 nM
9,CCOP(=O)(OCC)C(Nc1ccc(S(N)(=O)=O)cc1)c1ccccc1F (stereo not drawn),26.7 nM
10,CCOP(=O)(OCC)C(Nc1ccc(S(N)(=O)=O)cc1)c1cccc(Br)c1 (stereo not drawn),61.3 nM
11,CCOP(=O)(OCC)C(Nc1ccc(S(N)(=O)=O)cc1)c1ccccc1[N+](=O)[O-] (stereo not drawn),293 nM

# The next lines start with the values.
row,Ki,Compound
1,91.6 nM,CCOP(=O)(OCC)C(Nc1ccc(S(N)(=O)=O)cc1)c1ccc(F)cc1 (stereo not drawn)
2,142 nM,CCOP(=O)(OCC)C(Nc1ccc(S(N)(=O)=O)cc1)c1ccc(Cl)cc1 (stereo not drawn)
3,147 nM,CCOP(=O)(OCC)C(Nc1ccc(S(N)(=O)=O)cc1)c1ccc(C)cc1 (stereo not drawn)
4,154 nM,CCOP(=O)(OCC)C(Nc1ccc(S(N)(=O)=O)cc1)c1ccc(Br)cc1 (stereo not drawn)
5,140 nM,CCOP(=O)(OCC)C(Nc1ccc(S(N)(=O)=O)cc1)c1ccc(OC)cc1 (stereo not drawn)
